The results in this text go back to patent US8771953B2, “Evaluation of the potential risk of drug induced mood disturbance and suicide: use of a dedicated platform” (Biocortech, priority 2008, dated 2014).

Structures are written as SMILES. Like-named read-outs stand apart in the source and are kept apart here.

One assay has as its system ADAR1a mRNA. Description: Q-PCR of ADAR1a mRNA expression in SH-SY5Y cells. The format is cell-based. The settings on record: Homo sapiens, 10 micromolar, 24 hours, read-out: QPCR: RNA expresion (% of variation) ADAR1a. An excerpt:
ADAR1a RNA Expression in SH-SY5Y cells (Q-PCR, Applied TaqMan probes ref: Hs 01020780_m1).
(§1) The SH-SY5Y Human neuroblastoma cell line was purchased from ECACC (EC94030304 from the European Collection of Cell Cultures (ECACC)). The cell line SH-SY5Y is a thrice-cloned neuroblastoma, originally from SK-N-SH and first reported in 1978. A neuroblast-like subclone of SK-N-SH, named SH-SY, was subcloned as SH-SY5, which was subcloned again as SH-SY5Y (Biedler J L et al. Cancer Res. 1978; 38:3751-7). Cells were cultured in high glucose D-MEM medium (Sigma, ref D6546) supplemented with 10% dialysed FCS (PAA, ref. A15-507, lot A50708-0050), 2 mM Glutamine (Sigma, G7513) and a 1× mix of Antibiotic-Antimycotic Stabilized (Sigma, ref. A5955) at 37° C. under a humidified atmosphere of 5% CO2. The day preceeding drug or hIFNα treatment, SH-SY5Y cells were plated in 6-well plates at a density of 10^6 cells/well. One 6-well plate was used per experimental condition (concentration or treatment duration). The day after plating, culture medium was removed and cells were incubated for 24 hours with a 10 μM solution of the compound to be tested molecules or a 1000 IU/ml solution of hIFNα (PBL biomedical laboratories). For hIFNα dose-response experiment cells were incubated with 1, 10, 100, and 1000 IU/ml of hIFNα solutions. For hIFNα time-course experiment cells were treated for 24, 48, or 72 hours with a 1000 IU/ml solution of hIFNα. After the different treatments, cells were directly lysed in RLT lysis buffer and total RNA purified according to manufacturer's protocol (Qiagen, RNeasy Plus mini kit, ref. 74134). Total RNA was then reverse transcribed with Thermoscript RT-PCR system Plus Taq (Invitrogen, 11146-032) and the resulting cDNA used for CE-SSCP and quantitative real-time PCR.
(§2) In order to quantify levels of 5-HT2CR, ADAR1 and ADAR2 mRNA expression in SH-SY5Y cells or in prefrontal cortex, total blood and skin of Balb/cJ mice, first-strand cDNA was synthesized by reverse transcription and subjected to TaqMan quantitative real-time PCR analysis (Applied Biosystems). All probes and primers used for the quantitative PCRs were from Applied Bio systems (Gene Expression Assays, Assay-On-Demand) (see Table 1, Applied Biosystems primers and probes references): […]
(§3) Human GAPDH (product no. 4326317E; Applied Biosystems) or mouse GAPDH (product no. 4352339E; Applied Biosystems) were included in each multiplex PCR as an internal control. Real-time PCR and subsequent analysis were performed with a 48-well block StepOne RT PCR system (Applied Biosystems). Quantification of target gene expression in all samples was normalized to GAPDH expression by the equation Ct (target)−Ct (GAPDH)=ΔCt, where Ct is the threshold cycle number. The mean ΔCt value of samples from untreated mice or cells was determined and used as a reference point for the samples corresponding to treated animals or cells. Differences between untreated and treated animals or cells, including individual variation were calculated by the equation (ΔCt (individual treated samples)−ΔCt (mean of untreated samples)=ΔΔCt). Changes in target gene expression (n-fold) in each sample were calculated by 2^−ΔΔCt, from which the means and standard deviations (SD) were derived.
(§4) The SH-SY5Y Human neuroblastoma cell line was purchased from ECACC. Cells were cultured in high glucose D-MEM medium (Sigma, ref. D6546) supplemented with 10% dialysed FCS (PAA, ref. A15-507, lot A50708-0050), 2 mM Glutamine (Sigma, ref. G7513) and a 1× mix of Antibiotic-Antimycotic Stabilized (Sigma, ref. A5955) at 37° C. under a humidified atmosphere of 5% CO2. The day preceeding hIFNα or drug treatment, SH-SY5Y cells were plated in 6-well plates (Corning, Multiwell Plate, 6 well, Corning CellBIND Surface, ref 3335) at a density of 5; 7 or 9·10^6 cells/well for a 72-, 48- or 24-hour treatment respectively. Six or eight wells of 6-well plates were used per experimental condition (control, concentration or treatment duration).

The next assay deals with 5-HT2cR mRNA. Description: Editing profile of 5-HT2cR mRNA isoforms by CE-SSCP (nested PCR) in SH-SY5Y cells; enzyme activity indexes worked out from the profile. The format is cell-based, human. The note with it: Homo sapiens, SH-SY5Y.
A further assay has as its system ADAR2 mRNA. Description: Q-PCR of ADAR2 mRNA expression in SH-SY5Y cells. The format is cell-based. The settings on record: Homo sapiens, 10 micromolar, 24 hours, read-out: QPCR: RNA expresion (% of variation) ADAR2. Here is the method:
as §1, §2, §3, §4

For another assay, the system named is ADAR1b mRNA. In words: Q-PCR of ADAR1b mRNA expression in SH-SY5Y cells. The class given is cell-based. The note with it: Homo sapiens, 10 micromolar, 24 hours, read-out: QPCR: RNA expresion (% of variation) ADAR1b. As for the experimental part:
as §1, §2, §3, §4

[1] abbreviates: 10 micromolar, 24 hours, read-out: ENZYME ACTIVIY INDEX (% of variation) ADAR1.
The mark [2] stands for this setting: 10 micromolar, 24 hours, read-out: ENZYME ACTIVIY INDEX (% of variation) ADAR1 + 2.
Setting [3] is: 10 micromolar, 24 hours, read-out: ENZYME ACTIVIY INDEX (% of variation) ADAR2.
Where [4] appears, read: 10 micromolar, 24 hours, read-out: ENZYME ACTIVIY INDEX (% of variation) ADARI.
Setting [5] is: 10 micromolar, 24 hours, read-out: ENZYME ACTIVIY INDEX (% of variation) ADARII.
Where [6] appears, read: 10 micromolar, 24 hours, read-out: ENZYME ACTIVIY INDEX (% of variation) NE.
Setting [7] is: 24 h, read-out: ENZYME ACTIVIY INDEX (% of variation) ADAR1.
[8] abbreviates: 24 h, read-out: ENZYME ACTIVIY INDEX (% of variation) ADAR1 + 2.
The mark [9] stands for this setting: 24 h, read-out: ENZYME ACTIVIY INDEX (% of variation) ADAR2.
Setting [10] is: 24 h, read-out: ENZYME ACTIVIY INDEX (% of variation) ADARI.
[11] abbreviates: 24 h, read-out: ENZYME ACTIVIY INDEX (% of variation) ADARII.
Where [12] appears, read: 24 h, read-out: ENZYME ACTIVIY INDEX (% of variation) NE.

`CC(NC(C)(C)C)C(=O)c1cccc(Cl)c1` (stereo not drawn) [Bupropion]: the % change in ADAR1a mRNA expression at 10 µM with ADAR1a mRNA is -66%. Moreover, the activation at 10 µM is -16.3% in the assay with 5-HT2cR mRNA (setting [1]); 42.6% in the assay on 5-HT2cR mRNA (setting [2]); 68.9% in the assay with 5-HT2cR mRNA (setting [3]); -8.9% with 5-HT2cR mRNA (setting [4]); 34.7% in the assay on 5-HT2cR mRNA (setting [5]); 5.3% in the assay on 5-HT2cR mRNA (setting [6]). Besides, in the assay with ADAR2 mRNA, the percent change in ADAR2 mRNA expression at 10 µM was -40%. In addition, the percent change in mRNA expression at 10 µM in the assay on ADAR1b mRNA was -51%.

As to `NC(=O)N1c2ccccc2C=Cc2ccccc21` [Carbamazepine], the % change in ADAR1a mRNA expression at 10 µM with ADAR1a mRNA was found to be 52%. For the same molecule, the activation at 10 µM in the assay on 5-HT2cR mRNA (setting [1]) was -3%; with 5-HT2cR mRNA (setting [2]), 38.8%; in the assay on 5-HT2cR mRNA (setting [3]) it was 26%; in the assay on 5-HT2cR mRNA (setting [4]), 3%; in the assay with 5-HT2cR mRNA (setting [5]), 36.4%; in the assay on 5-HT2cR mRNA (setting [6]), -3.8%. Moreover, the percent change in ADAR2 mRNA expression at 10 µM in the assay with ADAR2 mRNA was -42%. The percent change in mRNA expression at 10 µM in the assay on ADAR1b mRNA was -62%.

Consider `CN(C)CCCC1(c2ccc(F)cc2)OCc2cc(C#N)ccc21` (stereo not drawn) [Citalopram], for which, in the assay with ADAR1a mRNA, the % change in ADAR1a mRNA expression at 10 µM was -18%. Further, the activation at 10 µM with 5-HT2cR mRNA (setting [1]) is -5.7%; in the assay with 5-HT2cR mRNA (setting [2]), 70.2%; in the assay with 5-HT2cR mRNA (setting [3]), 70.1%; with 5-HT2cR mRNA (setting [4]) it was 5.3%; with 5-HT2cR mRNA (setting [5]), 70.2%; with 5-HT2cR mRNA (setting [6]) it was -7.4%. In addition, the percent change in ADAR2 mRNA expression at 10 µM with ADAR2 mRNA worked out at 64%. For the same molecule, the percent change in mRNA expression at 10 µM in the assay on ADAR1b mRNA is -2%.

On to `CNCCCN1c2ccccc2CCc2ccccc21` [Desipramine], for which, in the assay on ADAR1a mRNA, the % change in ADAR1a mRNA expression at 10 µM stood at 29%. For the same molecule, the activation at 10 µM is -8.6% with 5-HT2cR mRNA (setting [7]); 5.7% with 5-HT2cR mRNA (setting [8]); 15.5% in the assay on 5-HT2cR mRNA (setting [9]); -6.6% with 5-HT2cR mRNA (setting [10]); 7.5% in the assay on 5-HT2cR mRNA (setting [11]); 5.9% with 5-HT2cR mRNA (setting [12]). Besides, the percent change in ADAR2 mRNA expression at 10 µM in the assay on ADAR2 mRNA was -12%. In the assay on ADAR1b mRNA, the percent change in mRNA expression at 10 µM is -38%.

Consider `NC(=O)OCC(COC(N)=O)c1ccccc1` [Felbamate], for which, in the assay with ADAR1a mRNA, the % change in ADAR1a mRNA expression at 10 µM is -13%. Further, the activation at 10 µM is 6.3% in the assay on 5-HT2cR mRNA (setting [1]); -13.9% with 5-HT2cR mRNA (setting [2]); -24.6% in the assay with 5-HT2cR mRNA (setting [3]); 2.4% with 5-HT2cR mRNA (setting [4]); -16% in the assay on 5-HT2cR mRNA (setting [5]); -1.2% in the assay with 5-HT2cR mRNA (setting [6]). Moreover, the percent change in ADAR2 mRNA expression at 10 µM in the assay on ADAR2 mRNA was found to be 1%. The percent change in mRNA expression at 10 µM with ADAR1b mRNA was -1%.

Consider `CCNC(C)Cc1cccc(C(F)(F)F)c1` (stereo not drawn) [Fenfluramine], for which the % change in ADAR1a mRNA expression at 10 µM in the assay on ADAR1a mRNA was determined as 7%. Also, the activation at 10 µM is 4.2% in the assay on 5-HT2cR mRNA (setting [7]); -43.3% in the assay on 5-HT2cR mRNA (setting [8]); 0.7% with 5-HT2cR mRNA (setting [9]); -4.8% with 5-HT2cR mRNA (setting [10]); -34.8% with 5-HT2cR mRNA (setting [11]); 4.5% with 5-HT2cR mRNA (setting [12]). Moreover, the percent change in ADAR2 mRNA expression at 10 µM with ADAR2 mRNA was 27%. Further, the percent change in mRNA expression at 10 µM in the assay with ADAR1b mRNA was found to be 23%.
